# Measurements from US20240263147A1, “CARDIAC ORGANOID AND ANTI-ELECTRO-MITOCHONDRIAL DESYNCHRONIZATION THERAPY” (YISSUM RESEARCH DEVELOPMENT COMPANY OF THE HEBREW …, priority 2021, published 2024).
# “Also recorded” adds a separate entry of the source.
# Columns and labels:
# [1] = tested on: vascularized cardiac organoids; experiment: Integrated metabolic-electro-mechanical sensor chip: simultaneous contraction, field potential and interstitial oxygen; format: cell-based, human; settings: for reversal of mitoxantrone-induced arrhythmic behavior: 100 μM metformin concurrent with 10 μM mitoxantrone
# [2] = tested on: hiPSC-derived vascularized cardiac organoids; experiment: Beating of vascularized cardiac organoids under pharmaceutical stimulation; format: cell-based, human
# Experimental: hiPS-derived cardiomyocytes and microvascular cardiac endothelial cells (VEC Technologies, USA) were counted and mixed in a 2:1 ratio in growth factor reduced Matrigel (BD Biosciences, San Jose, CA) at a cell density of 6.8×10^4 cells per μl. A volume of 1.1 μl of the gel-imbedded mixture (7.48×10^4 cells) was injected into each microwell and left to form spontaneously in RPMI-1640 supplemented with B27 minus insulin and 5 ng/ml vascular endothelial growth factor (VEGF-A, Peprotech) until their spontaneous beating was regained after 6-10 days.
# Fast phase-contrast imaging (17 frames per second) was performed at suitable magnification using an LSM-700 Zeiss microscope. The time-lapse micrograph was analyzed using a custom MATLAB® code. Briefly, multiple regions of interest (ROIs) were selected on the cardiac tissue borders, producing a distinct area with changes representative of the cardiac contraction. Dynamic changes in the ROI intensity were measured over time and converted into beating rates using Fast Fourier Transformation (FFT). Contractility was calculated based on the frequency amplitude magnitude.
# [3] = tested on: porcine cardiac tissue
# From the text: The tissue was procured post-mortem from a 70 kg domestic female pig that underwent a laparoscopic liver operation (Ethical approval number MD-21-16533-3) and was euthanized using a lethal dose of potassium chloride. […] The lung was retracted, and the pericardium was incised.
# The anterior wall of the left ventricle was incised from base to apex and several slices measuring 2-3 mm in length and 1-2 mm thick were obtained using a #10 scalpel blade. Cardiac tissues were further cut into 500±200 μm thick slices and washed thoroughly with 37° C. pre-warmed ex-vivo medium composed of M199 medium, supplemented with 1×insulin-transferrin-selenium (ITS), 10% fetal bovine serum (FBS), and 5 ng/mL vascular endothelial growth factor (VEGF), and 10 mM of 2-[4-(2-hydroxyethyl)piperazin-1-yl]ethanesulfonic acid (HEPES).
# The cardiac explants were then embedded with oxygen sensors, placed on the MEAs chip, and transferred to a 37° C. temperature-controlled incubation chamber that contains M199 medium supplemented with 1× ITS, 10% FBS, 5 ng/mL VEGF, and 10 mM HEPES to support long term function, as previously described. The explant was continuously point-stimulated at 2 Hz cycle length. Contraction, field potential, and oxygen were assessed using the integrated metabolic-electro-mechanical sensor chip. […]
# [4] = tested on: hiPSC-derived cardiomyocytes; experiment: Live imaging of mitochondrial calcium (Rhod-2AM) and visual contraction analysis in 2D culture; format: cell-based, human; settings: n=4
# [5] = known cardiac side effects of therapeutic agents; cited from earlier work
# [6] = tested on: vascularized cardiac organoids; experiment: Integrated metabolic-electro-mechanical sensor chip: simultaneous contraction, field potential and interstitial oxygen; format: cell-based, human
# Experimental: The MEA design and printed connections enabled access to 45 different electrodes inside the platform intermittently via a compatible sensor circuit (FIGS. 9A-9B). Spontaneous cardiac field potentials (FPs) were recorded from cardiac organoids using an integrated signal conditioning circuit (AD8232®), with a 2-pole adjustable high-pass filter, 3-pole adjustable low-pass filter, adjustable gain, and medical instrumentation amplifiers to extract, amplify, and filter the extracellular field potential of the organoids remotely within the confined well. […] Spontaneous cardiac field potentials were measured at 100 Hz sampling rate in each microwell. Field potential rhythm frequency was calculated in real-time using a custom-made MATLAB® software imposing Fourier Transformation (FFT) on the evolving kinetic data (FIGS. 9C-9D).
# Real-time oxygen measurement was performed based on previously described elements. Briefly, phosphorescent ruthenium microprobes (CPOx-50-RuP) show a decrease in phosphorescence decay time as a function of oxygen concentration, allowing to measure the oxygen content. Controlled sinusoidal modulated 532-nm LED signal excites the embedded oxygen sensors and emits a sinusoidal amplitude-modulated light at 605 nm that is shifted in phase due to oxygen quenching. A phase shift is measured between the emission hardware-filtered first detector (PMT), and a second excitation detector (cPMT). […] Measurements were carried out at a 10 Hz sampling rate. Contraction rate and oxygen rhythm frequency were calculated in real-time using a custom-made MATLAB® software imposing Fourier Transformation (FFT) on the evolving kinetic data. Using custom MATLAB code, we calculated the cardiac organoid contraction rates directly from our oxygen reader based on the emission intensity measured in peak-to-peak voltage from the oxygen bead and its displacement using the second PMT system. Cardiac displacement was measured by the embedded oxygen beads inside the cardiac organoids during a contraction. When the beads move at different distances from the focal point, changes in peak-to-peak voltage occurred leading to the detection of the contraction behavior.
# For simultaneous real-time oxygen, contraction rate, and field potential measurements, cardiac organoids were cultured in RPMI supplemented with B27 minus insulin, 5 ng/ml VEGF and 0.1% DMSO (control) or 10 μM KB-R7943 mesylate. Real-time oxygen, contraction rate, and field potential were measured after 0, 15, and 25 minutes of exposure to DMSO (control) or 10 μM KB-R7943 mesylate.
compound,measurement,setting,value
Cc1ccc2c(c1)C(=O)C1(O)CCN(c3ccccc3)C1=N2 (centres unmarked) [Blebbistatin],effect on contraction,[1]; 10 μM Blebbistatin,inhibits the contraction; also recorded: blocked cardiac contraction
same,effect on field potential and interstitial oxygen oscillation frequency and intensity,[1]; 10 μM Blebbistatin,does not affect the FPs or interstitial oxygen oscillations frequency and intensity; also recorded: did not affect the field potential or the oxygen oscillation frequency and intensity
CNC[C@H](O)c1ccc(O)c(O)c1 [epinephrine],effect on contractility and contraction rate,[1],increases the contractility and contraction rate
same,effect on mean interstitial oxygen concentration,[1],decreasing the mean interstitial oxygen concentration
same,increase of contraction,[1],33%
same,organoid contraction frequency,[1],1.95 Hz
same,contraction (beating) rate,[2],88±7 bpm
CCCCc1oc2ccccc2c1C(=O)c1cc(I)c(OCCN(CC)CC)c(I)c1 [amiodarone],decrease of contraction / contraction amplitude,"[2]; 10 μM amiodarone, n=6",28%
same,contraction rate,"[2]; 10 μM amiodarone, spontaneous beating 66±5 bpm, n=6",52±4 bpm
O=C1c2c(O)ccc(O)c2C(=O)c2c(NCCNCCO)ccc(NCCNCCO)c21 [mitoxantrone],beating frequency (cardiac rhythm),"[3]; female, pig, 10 μM",2 Hz
same,decrease in mitochondrial calcium,[4]; 10 μM mitoxantrone alone,79%
same,"effect on mechanical contraction, electrical depolarization and oxygen concentration",[1]; mitoxantrone exposure (10 μM),markedly decreased
same,contraction rate,"[1]; mitoxantrone exposure (10 μM), from 53 BPM",79 BPM
COc1cccc2c1C(=O)c1c(O)c3c(c(O)c1C2=O)C[C@@](O)(C(=O)CO)C[C@@H]3O[C@H]1C[C@H](N)[C@H](O)[C@H](C)O1 [Doxorubicin],Side effect (cardiac),[5],"arrhythmias, heart failure"
COc1cc2c(Nc3ccc(Br)cc3F)ncnc2cc1OCC1CCN(C)CC1 [Vandetanib],Side effect (cardiac),[5],long QT
NC1=N[C@H](O)[C@H]2[C@H]3O[C@]4(O)O[C@@H]([C@@H](O)[C@@]2(N1)[C@@H]4O)[C@]3(O)CO [Tetrodotoxin],"effect on field potential generation, mechanical contraction (and oxygen oscillation)",[6],"complete loss of field potential generation and associated mechanical contraction; also recorded: eliminated field potential generation, mechanical contraction, and oxygen oscillation"
same,effect on oxygen oscillation,[6],decayed simultaneously with the field potential
Arsenic trioxide,Side effect (cardiac),[5],"QT prolongation, tachycardia"
Cc1cn([C@H]2C[C@H](N=[N+]=[N-])[C@@H](CO)O2)c(=O)[nH]c1=O [Azidothymidine],Side effect (cardiac),[5],dilated cardiomyopathy
CCCN1C[C@H](CSC)C[C@@H]2c3cccc4[nH]cc(c34)C[C@H]21 [Pergolide],Side effect (cardiac),[5],valvular heart disease
Nivolumab,Side effect (cardiac),[5],lethal myocarditis
CNC(=O)c1cc(Oc2ccc(NC(=O)Nc3ccc(Cl)c(C(F)(F)F)c3)cc2)ccn1 [Sorafenib],Side effect (cardiac),[5],"heart failure, myocardial ischemia, QT prolongation"
CC(=O)[C@]1(O)Cc2c(O)c3c(c(O)c2[C@@H](O[C@H]2C[C@H](N)[C@H](O)[C@H](C)O2)C1)C(=O)c1ccccc1C3=O [Idarubicin],Side effect (cardiac),[5],"arrhythmias, heart failure"
COc1ccc(CCN2CCC(Nc3nc4ccccc4n3Cc3ccc(F)cc3)CC2)cc1 [Astemizole],Side effect (cardiac),[5],"long QT syndrome, TdP"
CS(=O)(=O)c1ccc(C2=C(c3ccccc3)C(=O)OC2)cc1 [Rofecoxib],Side effect (cardiac),[5],myocardial infarction
CN(C)C(=N)N=C(N)N [metformin],beating frequency,[3]; 100 μM metformin concurrent with 10 μM mitoxantrone,1.4 Hz
same,increase in mean mitochondrial calcium content,[4]; 100 μM metformin added to 10 μM mitoxantrone treatment,3.4 fold
same,reversal of mitoxantrone-induced arrhythmic behavior,[1],"reverts the effect, displaying regular heart contraction and field potential; also recorded: reversed this effect"
same,reversal of mitoxantrone-induced arrhythmic behavior,[1]; listed as Metformin,rescues the arrhythmic cardiac behavior
same,beating rate,"[1]; metformin (100 μM) combined with mitoxantrone (10 μM), from 82 BPM",61 BPM
CC(C)C[C@H](NC(=O)[C@H](Cc1ccccc1)NC(=O)c1cnccn1)B(O)O [Bortezomib],Side effect (cardiac),[5],"heart failure, arrhythmia"
COC(=O)[C@H]1[C@@H](OC(=O)c2ccccc2)C[C@@H]2CC[C@H]1N2C [Cocaine],Side effect (cardiac),[5],"left ventricular hypertrophy, arrhythmias"
CC[C@H]1OC(=O)[C@H](C)[C@@H](O[C@H]2C[C@@](C)(OC)[C@@H](O)[C@H](C)O2)[C@H](C)[C@@H](O[C@@H]2O[C@H](C)C[C@H](N(C)C)[C@H]2O)[C@](C)(OC)C[C@@H](C)C(=O)[C@H](C)[C@@H](O)[C@]1(C)O [Clarithromycin],Side effect (cardiac),[5],"QT prolongation, myocardial infarction, arrhythmias, cardiac death"
CC(CC(c1ccccc1)c1ccccc1)NC(C)(C)C (centres unmarked) [Terodiline],Side effect (cardiac),[5],"ventricular tachycardia, cardiac death"
O=C1Cc2cc(CCN3CCN(c4nsc5ccccc45)CC3)c(Cl)cc2N1 [Ziprasidone],Side effect (cardiac),[5],"QT prolongation, TdP, sudden cardiac death"
Cc1nc(Nc2ncc(C(=O)Nc3c(C)cccc3Cl)s2)cc(N2CCN(CCO)CC2)n1 [Dasatinib],Side effect (cardiac),[5],heart failure
CC(=O)O[C@@]12CO[C@@H]1C[C@H](O)[C@@]1(C)C(=O)[C@H](O)C3=C(C)[C@@H](OC(=O)[C@H](O)[C@@H](NC(=O)OC(C)(C)C)c4ccccc4)C[C@@](O)([C@@H](OC(=O)c4ccccc4)[C@H]21)C3(C)C [Docetaxel],Side effect (cardiac),[5],"bradycardia, myocardial ischemia, heart failure"
COc1cc(N)c(Cl)cc1C(=O)NC1CCN(CCCOc2ccc(F)cc2)CC1OC (centres unmarked) [Cispapride],Side effect (cardiac),[5],"ventricular arrhythmia, QT prolongation, TdP, cardiac arrest"
